Measured values reported in patent US7834248B2, “Plant seed comprising vernolic acid” (Commonwealth Scientific and Industrial Research Organisation, priority 1997, dated 2010).

Key:
[1] = target: T1, C. alpina linoleate Δ12-acetylenase (Crepis alpina, UniProt O81931); assay: Microsomal linoleate Δ12-acetylenase assay, effect of treatments; format: biochemical
T1 construct: from tissue; host or cells: microsomes from cotyledons of developing Crepis alpina seeds
Experimental: (§1) Preparations of membranes from Crepis alpina and Crepis palaestina were obtained as follows. Crepis alpina and Crepis palaestina plants were grown in green houses and seeds were harvested at the mid-stage of development (17-20 days after flowering). Cotyledons were squeezed out from their seed coats and homogenized with mortar and pestle in 0.1M phosphate buffer, pH 7.2 containing 0.33M sucrose, 4 mM NADH, 2 mM CoASH, 1 mg of bovine serum albumin/ml and 4,000 units of catalase/ml. The homogenate was centrifuged for 10 min at 18,000×g and the resulting supernatant centrifuged for 60 min at 150,000×g to obtain a microsome pellet.
(§2) […]. When NADPH was used as coreductant, the membranes were resuspended in homogenization buffer comprising NADPH in place of NADH.
(§3) Biochemical characterization of the microsomal linoleate Δ12-epoxygenase derived from Euphorbia lagascae and Crepis palaestina was carried out and data obtained were compared to the biochemical characteristics of oleate Δ12-desaturase and linoleate Δ12-acetylenase enzymes derived from microsomal preparations of Crepis alpina (Table 4).

[2] = system: C. alpina oleate Δ12-desaturase; assay: Microsomal oleate Δ12-desaturase assay, effect of treatments; format: biochemical, Crepis alpina; settings: for Enzyme Activity (% of control), C. alpina oleate Δ12-desaturase: microsomal membranes, control = minus NADPH plus NADH
Experimental: as §1, §2, §3

[3] = system: C. palaestina linoleate Δ12-epoxygenase; assay: Microsomal linoleate Δ12-epoxygenase assay, effect of treatments; format: biochemical, Crepis palaestina; settings: microsomal membranes; control = minus NADPH plus NADH
Experimental: as §1, §2, §3

[4] = system: E. lagascae linoleate Δ12-epoxygenase; assay: Membrane linoleate Δ12-epoxygenase assay, effect of treatments; format: biochemical, Euphorbia lagascae; settings: for Enzyme Activity (% of control), E. lagascae linoleate Δ12-epoxygenase: membranes, control = minus NADH plus NADPH
Experimental: Preparations of membranes from Euphorbia lagascae and assays of their epoxygenase activities were performed as described by Bafor et al. (1993) with incubations containing NADPH, unless otherwise indicated in Table 4. Lipid extraction, separation and methylation as well as GLC and radio-GLC separations were performed essentially as described by Kohn et al. (1994) and Bafor et al. (1993).
as §3

[5] = system: developing linseed cotyledons; assay: Incorporation of 14C-labelled oleic acid and vernolic acid into the lipids of developing linseed cotyledons
Experimental: 0.1 M phosphate buffer pH 7.2 for 90 or 270 min before extraction. An aliquot of the lipids in the chloroform phase was methylated and separated on silica gel TLC plates in n-hexane/diethylether/acetic acid (85:15:1). The rest of the lipids in the chloroform phase of each sample were applied on two separate silica gel TLC plates and the plates were developed in chloroform/methanol/acetic acid/water (85:15:10:3.5 by vol) for polar lipids separation and in n-hexane/diethylether/acetic acid (60:40:1.5) for neutral lipid separation. Lipid areas with migration corresponding to authentic standards were removed and radioactivity in each lipid were quantified by liquid scintillation counting.

T1 sequence (O81931 whole entry, stated change not applied): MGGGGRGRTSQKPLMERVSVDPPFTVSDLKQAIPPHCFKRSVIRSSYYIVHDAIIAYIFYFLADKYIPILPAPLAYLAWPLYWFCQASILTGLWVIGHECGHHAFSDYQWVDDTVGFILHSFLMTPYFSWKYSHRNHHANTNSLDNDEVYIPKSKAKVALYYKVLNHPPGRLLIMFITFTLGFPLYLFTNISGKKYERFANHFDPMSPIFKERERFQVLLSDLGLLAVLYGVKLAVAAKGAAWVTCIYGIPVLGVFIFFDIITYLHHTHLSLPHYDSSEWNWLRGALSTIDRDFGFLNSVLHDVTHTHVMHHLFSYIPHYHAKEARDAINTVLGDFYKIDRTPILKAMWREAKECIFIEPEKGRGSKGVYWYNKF

SMILES: NC(=O)C1=CN([C@@H]2O[C@H](COP(=O)(O)OP(=O)(O)OC[C@H]3O[C@@H](n4cnc5c(N)ncnc54)[C@H](OP(=O)(O)O)[C@@H]3O)[C@@H](O)[C@H]2O)C=CC1 [NADPH]
- Enzyme Activity (% of control), C. alpina linoleate Δ12-acetylenase ([1]; microsomal membranes, control = minus NADPH plus NADH): 73 % of control
- Enzyme Activity (% of control), C. alpina oleate Δ12-desaturase [2]: 95 % of control
- Enzyme Activity (% of control), C. palaestina linoleate Δ12-epoxygenase [3]: 94 % of control

SMILES: [C-]#[O+] [Carbon monoxide]
- Inhibition of linoleate Δ12-epoxygenase (in words) ([4]; Euphorbia lagascae membranes): is inhibited
- Enzyme Activity (% of control), E. lagascae linoleate Δ12-epoxygenase [4]: 3 % of control
- Inhibition of linoleate Δ12-acetylenase (in words) ([1]; Crepis alpina microsomes): not by carbon monoxide
- Inhibition of oleate Δ12-desaturase (in words) ([2]; Crepis alpina microsomes): not by carbon monoxide
- Enzyme Activity (% of control), C. alpina oleate Δ12-desaturase [2]: 85 % of control
- Enzyme Activity (% of control), C. palaestina linoleate Δ12-epoxygenase [3]: 88 % of control

SMILES: CCCCCCCC/C=C\CCCCCCCC(=O)O [[^14C]oleic acid, oleic acid]
- Activity of chloroform phase residing in phosphatidylcholine ([5]; after 30 min): About 22%
- Activity of chloroform phase residing in triacylglycerols ([5]; after 30 min): About 5%
- Added radioactivity taken up by the cotyledons and recovered as lipophilic substances (chloroform phase) ([5]; after the 30 min pulse labeling, virtually unchanged during further 270 min): Somewhat more than half
- Activity of chloroform phase residing in phosphatidylcholine ([5]; at 300 min of incubation): about 11%
- Activity of chloroform phase residing in triacylglycerols ([5]; at 300 min of incubation): 18%
- Activity contained in diacylglycerols ([5]; remained rather constant over the incubation periods): ~19%

SMILES: NC(=O)C1=CN([C@@H]2O[C@H](COP(=O)(O)OP(=O)(O)OC[C@H]3O[C@@H](n4cnc5c(N)ncnc54)[C@H](O)[C@@H]3O)[C@@H](O)[C@H]2O)C=CC1 [NADH]
- Enzyme Activity (% of control), E. lagascae linoleate Δ12-epoxygenase [4]: 11 % of control

SMILES: CCCCCC1OC1CC=CCCCCCCCC(=O)O (centres unmarked) [[^14C]vernolic acid, 12,13-epoxy-9-octadecenoic acid]
- Metabolism of the epoxy group by linseed cotyledons (in words) [5]: do not metabolize the epoxy group of vernolic acid to any great extent
